Test results reported in patent publication US10548911B2, “Small molecule anti-scarring agents” (UNIVERSITY OF ROCHESTER, priority 2014, dated 2020).
“Also recorded” adds a separate entry of the source.

What was measured:
[1] = system: primary human orbital fibroblasts; assay: TGFβ-induced myofibroblast formation, αSMA Western blot, primary human orbital fibroblasts; details: for overt toxicity / TGFβ-induced myofibroblast differentiation (αSMA expression): 2-500 μM
Protocol: Total protein was isolated from 0.5-2×10^6 cells and lysed in 60 mM Tris, pH 6.8, 2% SDS containing 1× protease inhibitor cocktail (Sigma, St. Louis, Mo.). The lysates were passed through a 26 gauge needle 5-6 times to shear genomic DNA. Protein concentrations were determined using the detergent compatible protein assay (BioRad). Total protein (1-10 ug per lane) was subjected to SDS-PAGE. Protein gels were transferred to PVDF membrane (Millipore) and probed with antibodies as specified. Western blot band intensities were quantified using ImageLab software (BioRad). Protein expression was normalized to β-tubulin levels.
Primary human orbital fibroblasts, primary human lung fibroblasts, and primary mouse lung fibroblasts were treated with TGFβ and HCPT (50 nM, 500 nM, and 5000 nM) or SNC (500 nM) or AXD (0.5 μM, 5 μM, and 50 μM) to assess the ability of HCPT to inhibit myofibroblast formation. […] Western blots were performed using cell lysates from the fibroblasts exposed to TGFβ to assess TGFβ-dependent αSMA expression.
Primary human orbital fibroblasts were treated with TGFβ and either 6-formylindolo(3,2-b)carbazole (“FICZ”, 1 μM), Omeprazole (“Ome”, 2 μM, 10 μM, 50 μM, 100 μM, 250 μM, 500 μM), or Flutamide (“Flut”, 2 μM, 10 μM, 50 μM, 100 μM, 250 μM, 500 μM) to assess their ability to inhibit myofibroblast formation. […] Western blots were performed using cell lysates from the fibroblasts exposed to TGFβ to assess TGFβ-dependent αSMA expression. Densitometry analyses of the Western blots were also performed.

[2] = system: TGFβ-induced luciferase activity; assay: Spectrum collection small molecule screen with TGFβ-dependent SBE-luciferase HEK293FT reporter cell line; assay type: cell-based, human; details: HEK293FT-luc reporter line
Excerpt: The minimal thymidine kinase promoter was amplified by PCR with the following forward and reverse primers, of which the forward primer contained four tandem Smad binding elements (SBE):
Restriction sites in the primers are underlined. The resultant PCR product was TOPO cloned (Invitrogen) and the correct insert was verified by DNA sequencing. The construct was digested with SacI-HindIII and the SBEx4-TK insert was purified and ligated with the pGL4.15 vector (Promega). Clones were verified by restriction digest and then tested for TGFβ responsiveness in transient transfections of 293FT cells. […] Clones were selected by treatment with 200 μg/ml hygromycin. 20 clones were selected and screened for TGFβ-induced luciferase activity. One clone that was robustly responsive was subsequently used in the small molecule screen.
Excessive scarring results from the formation of too many myofibroblasts and the production of too much extracellular matrix material such as collagen. Since TGFβ drives the formation of myofibroblasts in part through activating the Smad pathway, a reporter construct was designed to serve as a measure of TGFβ-induced Smad activity (FIG. 1A). Four tandem Smad binding elements (SBE) were inserted upstream of the minimal thymidine kinase promoter. The SBEx4-TK promoter was inserted into the pGL4.15 vector which contains a destabilized firefly luciferase gene and the hygromycin resistance gene. The pSBEx4-TK-luc-Hygro plasmid was then introduced into HEK293FT cells by lipofection. Stable clones were generated and screened for TGFβ induced luciferase activity. One clone was selected that consistently gave a 15 to 20-fold induction of luciferase activity when cells were treated with TGFβ for 24 hours (FIG. 1B).
To find compounds that inhibit TGFβ activity and thus may be novel anti-scarring compounds, the Spectrum collection of 2,300 small molecules was screened with the cell line. […] Salinomycin, an antibiotic produced from Streptomyces albus is used as coccidiostat agent in animal feed (Knirschova et al., “Multiple regulatory genes in the salinomycin biosynthetic gene cluster of Streptomyces albus CCM 4719,” Folia Microbiologica 52:359-365 (2007), which is hereby incorporated by reference in its entirety). […] Thus, further investigation was made to assess the use of salinomycin as an anti-scarring agent.

[3] = system: TGFβ-induced SBE-luciferase activity; assay: Secondary dual luciferase screen (SBE-luciferase normalized to constitutive Renilla luciferase); assay type: cell-based, human; details: secondary dual luciferase screen, several doses (low micromolar)
Protocol: FIG. 1A is a diagram of Smad-dependent reporter construct. Four tandem Smad binding elements (SBE) were inserted upstream of the minimal Thymidine Kinase (TK) promoter. Downstream of the promoter is a destabilized version of the firefly luciferase gene (luc2P) present in the pLuc2P-Hygro plasmid which also harbors the hygromycin resistance gene. The plasmid was introduced into HEK293FT cell line and individual colonies were selected with hygromycin (200 ug/ml) to develop a Smad/TGFβ dependent-luciferase reporter cell line. FIG. 1B is a graph illustrating the response of the reporter cell line to 1 ng/ml treatment of TGFβ for 20 hours, which results in an approximately 20-fold increase of luciferase activity.
They are: Benzbromarone (“BZB”), Bithionate sodium (“BTS”), Piplartine (piperlongumine) (“PPT”), Amsacrine (“ASC”), and Alexidine (“AXD”). A secondary luciferase screening assay was performed to determine specificity and dose responsiveness of these compounds in comparison to salinomycin (“SNC”). The secondary screen utilizes dual luciferase technology that includes the above mentioned SBE-luciferase in addition to a Renilla luciferase that is under control of the constitutive SV40 promoter. Therefore the SBE-luciferase activity can be normalized to the Renilla luciferase activity to control for toxicity and non-specific effects. The secondary screen can thus be used to remove small molecules that display overt toxicity and/or non-specific effects on the primary assay.

[4] = system: TGFβ-dependent myofibroblast formation in primary human fibroblasts; assay: Myofibroblast formation assay in primary human fibroblasts (morphology, Western blot) for Spectrum hits; assay type: cell-based; details: for α-SMA and calponin expression in human fibroblasts: FIG. 14 lanes: PPT 1, 5 uM, AXD 0.1, 1 uM, SNC 100 nM, 1 uM; for α-SMA and calponin expression in human fibroblasts / TGFβ-dependent αSMA and calponin (marker) expression / myofibroblast formation / phenotype: BTS, ASC; for TGFβ-dependent αSMA and calponin (marker) expression: higher dose: PPT 5 μM; for TGFβ-dependent αSMA and calponin (marker) expression / myofibroblast formation / phenotype: AXD 1 μM; for myofibroblast formation / phenotype: lowest effective dose from secondary screen: PPT 5 μM, SNC 0.1 μM, TGFβ 1 ng/ml, 72 hours
Protocol: Using the lowest effective dose from the secondary screening assay, PPT (5 μM), ASC (1 μM), BTS (1 μM), and AXD (1 μM) were compared to 0.1 μM SNC using primary human fibroblasts (FIG. 13). The myofibroblast formation assay consists of the following protocol: fibroblasts are treated with the aforementioned small molecules and treated with TGFβ (1 ng/ml) for 72 hours. The cells were then either photographed for morphological analysis or collected, lysed and analyzed by Western blot for the myofibroblast markers alpha-smooth muscle actin (αSMA) and calponin. β-tubulin was used as a loading control.
PPT was used at 1 and 5 μM (lanes 3 and 4), BTS was used at 0.1 and 1 μM (lanes 5 and 6), ASC was used at 0.1 and 1 μM (lanes 7 and 8), SNC was used at 100 nM and 1 μM (lanes 9 and 10), and AXD was used at 0.1 and 1 μM (lanes 11 and 12).

Row | SMILES | αSMA expression ([1]; 100 μM) | overt toxicity [1] | TGFβ-induced myofibroblast differentiation (αSMA expression) [1] | inhibition of TGFβ-induced luciferase activity, initial screen [2] | inhibition of luciferase expression, dose responsiveness [3] | α-SMA and calponin expression in human fibroblasts [4] | TGFβ-dependent αSMA and calponin (marker) expression [4] | myofibroblast formation / phenotype [4] | expression of Thy1 ([4]; high dose, 1 μM)
1 | COc1ccc2[nH]c([S+]([O-])Cc3ncc(C)c(OC)c3C)nc2c1 (racemic) [omeprazole] | sub-baseline levels | No overt toxicity was observed | inhibited TGFβ-induced myofibroblast differentiation; also recorded: inhibits human orbital fibroblast to myofibroblast differentiation |  |  |  |  |  | 
2 | COc1cc(/C=C/C(=O)N2CCC=CC2=O)cc(OC)c1OC [PPT, piplartine (piperlongumine)] |  |  |  | inhibit TGFβ-induced luciferase | substantially inhibited luciferase expression; also recorded: strong luciferase inhibition | inhibit β-dependent α-SMA and calponin expression | inhibited marker expression | inhibit myofibroblast phenotype; also recorded: inhibits myofibroblast formation | 
3 | CC(C)C(=O)Nc1ccc([N+](=O)[O-])c(C(F)(F)F)c1 [flutamide, Flutamide] |  | No overt toxicity was observed | inhibited TGFβ-induced myofibroblast differentiation; also recorded: inhibits human orbital fibroblast to myofibroblast differentiation |  |  |  |  |  | 
4 | CCc1oc2ccccc2c1C(=O)c1cc(Br)c(O)c(Br)c1 [BZB, benzbromarone] |  |  |  | inhibit TGFβ-induced luciferase | All but BZB substantially inhibited luciferase expression |  |  |  | 
5 | CCCCC(CC)CNC(=N)NC(=N)NCCCCCCNC(=N)NC(=N)NCC(CC)CCCC (stereo not shown) [AXD, alexidine] |  |  |  | inhibit TGFβ-induced luciferase | substantially inhibited luciferase expression; also recorded: strong luciferase inhibition | inhibit β-dependent α-SMA and calponin expression | inhibited marker expression | inhibit myofibroblast phenotype; also recorded: inhibits myofibroblast formation | did inhibit Thy1
6 | COc1cc(NS(C)(=O)=O)ccc1Nc1c2ccccc2nc2ccccc12 [ASC, amsacrine] |  |  |  | inhibit TGFβ-induced luciferase | substantially inhibited luciferase expression; also recorded: strong luciferase inhibition | inhibit β-dependent α-SMA and calponin expression | inhibited marker expression | inhibit myofibroblast phenotype; also recorded: inhibits myofibroblast formation | 
7 | Oc1c(Cl)cc(Cl)cc1Sc1cc(Cl)cc(Cl)c1O [BTS, bithionate sodium] |  |  |  | inhibit TGFβ-induced luciferase | substantially inhibited luciferase expression; also recorded: strong luciferase inhibition | inhibit β-dependent α-SMA and calponin expression | inhibited marker expression | inhibit myofibroblast phenotype; also recorded: inhibits myofibroblast formation | 
